Patent publication US20210070748A1, “INHIBITORS OF BRUTONS TYROSINE KINASE” (Pharmacyclics LLC, priority 2015, published 2021)
Read-outs that look alike come from different tables or passages of the source.

Key:
Format in all cases: biochemical
JAK3 = molecular target: T1, JAK3 (Homo sapiens, UniProt P52333); test: Inhibition of a panel of kinases, in vitro HotSpot kinase assay: JAK3; details: Table 10, Formula A-I; 1 μM ATP; read-out: JAK3 (IC50)
T1 sequence (P52333 1-1124): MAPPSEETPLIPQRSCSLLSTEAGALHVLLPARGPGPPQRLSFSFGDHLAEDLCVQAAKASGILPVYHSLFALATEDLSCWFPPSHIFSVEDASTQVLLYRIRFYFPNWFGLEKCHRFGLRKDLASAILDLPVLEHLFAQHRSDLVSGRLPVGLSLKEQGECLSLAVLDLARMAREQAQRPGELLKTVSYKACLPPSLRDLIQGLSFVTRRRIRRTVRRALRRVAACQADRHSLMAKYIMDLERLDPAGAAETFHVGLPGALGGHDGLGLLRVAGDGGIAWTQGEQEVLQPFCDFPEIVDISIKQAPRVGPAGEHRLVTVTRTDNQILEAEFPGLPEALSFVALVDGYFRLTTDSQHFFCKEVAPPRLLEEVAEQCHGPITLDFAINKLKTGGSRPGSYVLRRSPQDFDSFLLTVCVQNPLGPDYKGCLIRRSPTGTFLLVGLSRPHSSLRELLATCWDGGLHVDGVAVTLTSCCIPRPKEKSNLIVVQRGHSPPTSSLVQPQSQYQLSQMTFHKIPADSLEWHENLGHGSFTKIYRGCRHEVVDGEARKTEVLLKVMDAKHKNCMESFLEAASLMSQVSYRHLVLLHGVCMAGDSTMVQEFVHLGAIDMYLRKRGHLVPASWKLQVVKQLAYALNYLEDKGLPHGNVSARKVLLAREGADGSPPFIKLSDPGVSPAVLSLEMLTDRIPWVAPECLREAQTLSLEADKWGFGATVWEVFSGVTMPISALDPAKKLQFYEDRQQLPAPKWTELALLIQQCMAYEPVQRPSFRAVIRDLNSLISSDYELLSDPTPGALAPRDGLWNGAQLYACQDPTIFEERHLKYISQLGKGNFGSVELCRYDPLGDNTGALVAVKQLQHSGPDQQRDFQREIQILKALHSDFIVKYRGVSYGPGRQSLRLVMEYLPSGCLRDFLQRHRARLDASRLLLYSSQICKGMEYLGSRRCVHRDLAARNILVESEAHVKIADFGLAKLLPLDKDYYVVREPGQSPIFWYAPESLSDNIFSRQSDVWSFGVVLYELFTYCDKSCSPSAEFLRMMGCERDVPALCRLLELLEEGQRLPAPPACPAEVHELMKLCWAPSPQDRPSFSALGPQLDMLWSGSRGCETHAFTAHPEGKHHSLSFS

BTK-WT = molecular target: T2, BTK-WT (Homo sapiens, UniProt Q06187); test: Btk in vitro inhibitory activity (one of Method A TR-FRET, Method B electrophoretic mobility shift, Method C radiometric filter binding)
T2 construct: purified from insect cells as a full-length construct containing an N-terminal 6X-His tag; His6 (N); made in house; host or cells: insect cells (baculovirus Sf21 in Method B)

ITK = molecular target: T3, ITK (Homo sapiens, UniProt Q08881); test: Inhibition of a panel of kinases, in vitro HotSpot kinase assay: ITK; details: E compounds, Table 17
T3 sequence (Q08881 1-620): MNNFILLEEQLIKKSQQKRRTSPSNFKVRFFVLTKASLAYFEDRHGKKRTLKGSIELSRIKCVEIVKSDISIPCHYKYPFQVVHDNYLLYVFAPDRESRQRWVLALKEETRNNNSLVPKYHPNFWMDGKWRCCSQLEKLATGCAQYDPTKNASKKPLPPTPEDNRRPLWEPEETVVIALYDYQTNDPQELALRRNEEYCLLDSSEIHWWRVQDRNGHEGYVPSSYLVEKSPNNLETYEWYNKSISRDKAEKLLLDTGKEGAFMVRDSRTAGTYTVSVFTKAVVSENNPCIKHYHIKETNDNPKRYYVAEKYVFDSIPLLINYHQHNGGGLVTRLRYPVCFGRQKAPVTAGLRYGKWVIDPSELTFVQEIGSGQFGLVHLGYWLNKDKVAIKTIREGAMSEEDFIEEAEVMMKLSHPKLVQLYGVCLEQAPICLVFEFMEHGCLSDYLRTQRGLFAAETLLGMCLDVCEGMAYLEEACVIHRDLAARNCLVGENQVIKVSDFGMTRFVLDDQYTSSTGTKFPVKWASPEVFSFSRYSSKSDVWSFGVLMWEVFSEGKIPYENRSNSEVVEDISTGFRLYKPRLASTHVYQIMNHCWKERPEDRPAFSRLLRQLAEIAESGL
Method: The degree of inhibition of a panel of kinases is determined using the in vitro HotSpot kinase assay (purified enzymes, ^33P-ATP, an appropriate substrate and 1 μM ATP).

[1] = Table 10, Formula A-I, read-out: BTK-WT (IC50)
[2] = E compounds, Table 17, read-out: IC50 BTK-WT

T2 sequence (Q06187 whole entry): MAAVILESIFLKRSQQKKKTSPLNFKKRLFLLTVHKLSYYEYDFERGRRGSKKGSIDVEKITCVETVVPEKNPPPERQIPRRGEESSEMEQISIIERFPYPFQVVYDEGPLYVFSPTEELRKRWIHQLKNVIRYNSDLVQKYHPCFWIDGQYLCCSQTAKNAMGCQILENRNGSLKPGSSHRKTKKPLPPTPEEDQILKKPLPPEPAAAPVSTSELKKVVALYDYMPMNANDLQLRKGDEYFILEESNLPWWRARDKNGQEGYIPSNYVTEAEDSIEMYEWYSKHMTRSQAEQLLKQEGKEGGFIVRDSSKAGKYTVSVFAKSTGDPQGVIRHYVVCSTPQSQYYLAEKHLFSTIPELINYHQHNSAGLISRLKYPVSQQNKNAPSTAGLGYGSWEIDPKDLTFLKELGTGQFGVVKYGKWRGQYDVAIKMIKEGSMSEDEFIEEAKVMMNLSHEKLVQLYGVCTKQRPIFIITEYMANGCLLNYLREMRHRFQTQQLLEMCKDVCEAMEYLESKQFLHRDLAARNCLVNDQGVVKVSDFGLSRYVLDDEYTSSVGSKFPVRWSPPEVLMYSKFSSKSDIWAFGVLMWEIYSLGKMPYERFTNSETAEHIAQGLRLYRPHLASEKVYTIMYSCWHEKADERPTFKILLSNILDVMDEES

Row | Structure (SMILES) | IC50 (JAK3) | IC50 (BTK-WT; [1]) | IC50 (ITK) | IC50 (BTK-WT; [2])
1 | Cc1cc(Nc2nc(N3CCC[C@H](NC(=O)c4ccc(N(C)C)cc4)[C@@H]3CO)cnc2C(N)=O)sn1 (stereo in doubt) [Example A-67, 5-[(2R,3S)-3-[4-(dimethylamino)benzamido]-2-(hydroxymethyl)piperidin-1-yl]-3-[(3-methyl-1,2-thiazol-5-yl)amino]pyrazine-2-carboxamide] | 100 to 1000 nM | ≤ 100 nM | – | –
2 | Cc1cc(Nc2nc(N3CCC[C@@H](NC(=O)c4ccc(N(C)C)cc4)[C@H]3CO)cnc2C(N)=O)sn1 (stereo in doubt) [Example A-68, 5-[(2S,3R)-3-[4-(dimethylamino)benzamido]-2-(hydroxymethyl)piperidin-1-yl]-3-[(3-methyl-1,2-thiazol-5-yl)amino]pyrazine-2-carboxamide] | > 10000 nM | 100 to 1000 nM | – | –
3 | Cc1cccc(C(=O)N[C@@H]2CCCN(c3cnc(C(N)=O)c(Nc4ccc(C5CCN(C6CCCC6)CC5)cc4)n3)C2)c1 [Example A-8, 3-{[4-(1-cyclopentylpiperidin-4-yl)phenyl]amino}-5-[(3R)-3-(3-methylbenzamido)piperidin-1-yl]pyrazine-2-carboxamide] | 100 to 1000 nM | ≤ 100 nM | – | –
4 | Cc1cc(Nc2nc(N3CCC[C@@H](NC(=O)c4ccc(C(C)(C)C)cc4)C3)cnc2C(N)=O)sn1 [Example A-37, 5-[(3R)-3-(4-tert-butylbenzamido)piperidin-1-yl]-3-[(3-methyl-1,2-thiazol-5-yl)amino]pyrazine-2-carboxamide] | > 10000 nM | ≤ 100 nM | – | –
5 | CCn1cc2cc(C(=O)N[C@@H]3CCCN(c4cnc(C(N)=O)c(Nc5cc(C)ns5)n4)C3)ccc2n1 [Example A-38, N-[(3R)-1-{5-carbamoyl-6-[(3-methyl-1,2-thiazol-5-yl)amino]pyrazin-2-yl}piperidin-3-yl]-2-ethyl-2H-indazole-5-carboxamide] | 1000 to 10000 nM | ≤ 100 nM | – | –
6 | Cc1cc(Nc2nc(N3CCC[C@@H](NC(=O)c4ccc(C5CC5)cc4F)C3)cnc2C(N)=O)sn1 [Example A-39, 5-[(3R)-3-(4-cyclopropyl-2-fluorobenzamido)piperidin-1-yl]-3-[(3-methyl-1,2-thiazol-5-yl)amino]pyrazine-2-carboxamide] | > 10000 nM | ≤ 100 nM | – | –
7 | Cc1cc(Nc2nc(N3CCC[C@@H](N(C)C(=O)c4ccc(C(C)C)cc4)C3)cnc2C(N)=O)sn1 [Example A-40, 3-[(3-methyl-1,2-thiazol-5-yl)amino]-5-[(3R)-3-[N-methyl4-(propan-2-yl)benzamido]piperidin-1-yl]pyrazine-2-carboxamide] | > 10000 nM | ≤ 100 nM | – | –
8 | Cc1cc(Nc2nc(N3CCC[C@@H](NC(=O)c4ccc(N(C)C)cc4)[C@H]3C)cnc2C(N)=O)sn1 [Example A-55, 5-[(2R,3R)-3-[4-(dimethylamino)benzamido]-2-methylpiperidin-1-yl]-3-[(3-methyl-1,2-thiazol-5-yl)amino]pyrazine-2-carboxamide] | 100 to 1000 nM | ≤ 100 nM | – | –
9 | Cc1cc(Nc2nc(N3CCC[C@@H](NC(=O)c4ccc(C(C)C)cc4)[C@H]3C)cnc2C(N)=O)sn1 [Example A-56, 3-[(3-methyl-1,2-thiazol-5-yl)amino]-5-[(2R,3R)-2-methyl-3-[4-(propan-2-yl)benzamido]piperidin-1-yl]pyrazine-2-carboxamide] | 1000 to 10000 nM | ≤ 100 nM | – | –
10 | C=CC(=O)N1CCC[C@@H](Nc2nnc(C(N)=O)c(Nc3ccc(CN[C@@H](C)C(C)(C)C)cc3)n2)C1 [Example E-57, 3-((R)-1-acryloylpiperidin-3-ylamino)-5-(4-(((S)-3,3-dimethylbutan-2-ylamino)methyl)phenyl-amino)-1,2,4-triazine-6-carboxamide] | – | – | ≤ 10 nM | ≤ 10 nM
11 | C=CC(=O)N[C@@H]1CCC[C@@H](Nc2nnc(C(N)=O)c(Nc3ccc(C(C)C)cc3)n2)C1 [Example E-58, 3-((1R,3R)-3-acrylamidocyclohexyl-amino)-5-(4-isopropylphenylamino)-1,2,4-triazine-6-carboxamide] | – | – | 100 to 1000 nM | ≤ 10 nM
12 | C=CC(=O)N[C@H]1CCC[C@@H](Nc2nnc(C(N)=O)c(Nc3ccc(C(C)C)cc3)n2)C1 [Example E-59, 3-((1R,3S)-3-acrylamidocyclohexyl-amino)-5-(4-isopropylphenylamino)-1,2,4-triazine-6-carboxamide] | – | – | 100 to 1000 nM | ≤ 10 nM
13 | C=CC(=O)N1CCC[C@@H](Nc2nnc(C(N)=O)c(Nc3ccc(-c4cnn(C(=O)C=C)c4)cc3)n2)C1 [Example E-60, (R)-5-(4-(1-acryloyl-1H-pyrazol-4-yl)phenylamino)-3-(1-acryloylpiperidin-3-ylamino)-1,2,4-triazine-6-carboxamide] | – | – | 10 to 100 nM | ≤ 10 nM
14 | C=CC(=O)N1CCC[C@@H](Nc2nnc(C(N)=O)c(Nc3cccc(-c4nccs4)c3)n2)C1 [Example E-70, (R)-3-(1-acryloylpiperidin-3-ylamino)-5-(3-(thiazol-2-yl)phenylamino)-1,2,4-triazine-6-carboxamide] | – | – | 10 to 100 nM | ≤ 10 nM
15 | C=CC(=O)N1CCC[C@@H](Nc2nnc(C(N)=O)c(Nc3ccc4c(c3)CCC(=O)N4C)n2)C1 [Example E-71, (R)-3-(1-acryloylpiperidin-3-ylamino)-5-(1-methyl-2-oxo-1,2,3,4-tetrahydroquinolin-6-ylamino)-1,2,4-triazine-6-carboxamide] | – | – | ≤ 10 nM | ≤ 10 nM
16 | CN1C(=O)CCc2cc(Nc3nc(N[C@@H]4CCCN(C(=O)OC(C)(C)C)C4)nnc3C(N)=O)ccc21 [Example E-72, (R)-tert-butyl 3-(6-carbamoyl-5-(1-methyl-2-oxo-1,2,3,4-tetrahydroquinolin-6-ylamino)-1,2,4-triazin-3-ylamino)piperidine-1-carboxylate] | – | – | 1000 to 10000 nM | 10 to 100 nM
17 | C=CC(=O)N1CCC[C@H](Nc2cnc(C(N)=O)c(Nc3ccc(-c4ncccn4)cc3)n2)C1 [Example E-94, (S)-5-(1-acryloylpiperidin-3-ylamino)-3-(4-(pyrimidin-2-yl)phenylamino)pyrazine-2-carboxamide] | – | – | 100 to 1000 nM | ≤ 10 nM
18 | C=CC(=O)N1CCC[C@H](Nc2cnc(C(N)=O)c(Nc3ccc(C(C)C)cc3)n2)C1 [Example E-101, (S)-5-(1-acryloylpiperidin-3-ylamino)-3-(4-isopropylphenylamino) pyrazine-2-carboxamide] | – | – | 100 to 1000 nM | ≤ 10 nM
19 | CN(c1cnc(C(N)=O)c(Nc2ccc(C3(C)CCN(C4CC4)CC3)cc2)n1)[C@@H]1CCN(C(=O)C(F)(F)F)C1 [Example E-105, (R)-3-(4-(1-cyclopropyl-4-methylpiperidin-4-yl)phenylamino)-5-(methyl(1-(2,2,2-trifluoroacetyl)pyrrolidin-3-yl)amino)pyrazine-2-carboxamide] | – | – | ≤ 10 nM | ≤ 10 nM
20 | CN(c1cnc(C(N)=O)c(Nc2ccc(C3(C)CCN(C4CCCC4)CC3)cc2)n1)[C@@H]1CCN(C(=O)C(F)(F)F)C1 [Example E-107, (R)-3-(4-(1-cyclopentyl-4-methylpiperidin-4-yl)phenylamino)-5-(methyl(1-(2,2,2-trifluoroacetyl)pyrrolidin-3-yl)amino)pyrazine-2-carboxamide] | – | – | ≤ 10 nM | ≤ 10 nM
